Structures are written as SMILES.

T1 sequence (O75762 whole entry): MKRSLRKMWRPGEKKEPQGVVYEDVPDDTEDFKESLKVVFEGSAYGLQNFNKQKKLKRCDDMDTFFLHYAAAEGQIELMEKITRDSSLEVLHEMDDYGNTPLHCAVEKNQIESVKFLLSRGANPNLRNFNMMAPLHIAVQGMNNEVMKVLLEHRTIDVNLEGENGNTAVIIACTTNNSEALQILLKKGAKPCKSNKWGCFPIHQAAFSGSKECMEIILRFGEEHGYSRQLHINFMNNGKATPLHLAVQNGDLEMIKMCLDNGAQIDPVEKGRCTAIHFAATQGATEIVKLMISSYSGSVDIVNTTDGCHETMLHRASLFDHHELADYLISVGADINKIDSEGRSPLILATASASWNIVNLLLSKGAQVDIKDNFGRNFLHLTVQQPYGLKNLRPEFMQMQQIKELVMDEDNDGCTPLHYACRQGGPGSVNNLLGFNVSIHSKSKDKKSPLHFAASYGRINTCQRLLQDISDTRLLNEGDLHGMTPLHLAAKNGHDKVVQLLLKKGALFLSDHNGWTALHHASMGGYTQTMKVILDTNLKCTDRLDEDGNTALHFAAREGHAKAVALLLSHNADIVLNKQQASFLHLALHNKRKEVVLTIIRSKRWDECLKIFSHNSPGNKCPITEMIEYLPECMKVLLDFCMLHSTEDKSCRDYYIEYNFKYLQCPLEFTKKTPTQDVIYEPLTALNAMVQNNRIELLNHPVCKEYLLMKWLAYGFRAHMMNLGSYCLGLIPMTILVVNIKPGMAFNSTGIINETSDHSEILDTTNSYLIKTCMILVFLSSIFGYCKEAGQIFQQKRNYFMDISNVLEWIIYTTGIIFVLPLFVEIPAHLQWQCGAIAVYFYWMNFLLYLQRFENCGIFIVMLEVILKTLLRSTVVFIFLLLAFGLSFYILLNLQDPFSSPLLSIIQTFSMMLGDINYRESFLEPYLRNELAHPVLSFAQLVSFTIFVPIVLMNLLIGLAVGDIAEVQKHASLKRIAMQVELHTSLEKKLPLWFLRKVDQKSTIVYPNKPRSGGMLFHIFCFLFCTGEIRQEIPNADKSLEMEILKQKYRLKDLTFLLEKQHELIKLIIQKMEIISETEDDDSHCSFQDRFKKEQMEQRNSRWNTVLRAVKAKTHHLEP

One assay addresses T1, human TRPA1 (Homo sapiens, UniProt O75762).
T1 construct: expressed in transfected cells
Nature of the assay: Cell-based functional intracellular calcium ([Ca2+]i) assay, Fluo-4/Fluo-8, FlexStation, challenge with reference TRPA1 agonist (FFA, AITC or 4-HNE).
Conditions: not given
Summed up:
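Doxycycline-induced (1 μg/ml) HEK293 expressing human TRPA1, with 5 μM ruthenium red during induction, loaded with Fluo-4 or Fluo-8 plus 2 mM probenecid; FlexStation read at 20-25° C, sometimes with 0.1% BSA.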
For orientation: Calcium assays in cells follow changes in intracellular calcium, usually with a dye or a luminescent sensor.
Regarding `CCCC1COC2(CCN(C(=O)c3cc(-c4ccncc4)n(-c4ccc(F)c(F)c4)n3)CC2)O1` (stereo not shown) [Compound 96], the IC50 is greater than 25 µM. Still for that read-out and setting: under `O=C(c1cc(-c2ccncc2)n(-c2ccccc2)n1)N1CCC2(CC1)OCCO2` [Compound 31] stands greater than 25 µM; under `O=C(c1cc(-c2cccnc2)n(-c2ccc(C(F)(F)F)c(F)c2)n1)N1CCC2(CC1)C(=O)NC(=O)N2c1ccc(F)cc1` [Compound 185], 5 to 25 µM; under `O=C(c1cc(-c2ccncc2)n(-c2ccc(F)c(F)c2)n1)N1CCC(N2C(=O)Cc3ccccc32)CC1` [Compound 76], greater than 25 µM. On the same count and under the same terms, under `CC1COC2(CCN(C(=O)c3cc(-c4ccncc4)n(-c4ccc(F)c(F)c4)n3)CC2)O1` (stereo not shown) [Compound 93] stands greater than 25 µM; under `O=C(c1cc(-c2ccncc2)n(-c2ccc3c(c2)OCO3)n1)N1CCC2(CC1)OCCO2` [Compound 157], greater than 25 µM. Turning to `O=C(c1cc(-c2cccnc2)n(-c2ccc(C(F)(F)F)c(F)c2)n1)N1CCN2C(=O)OC3(CC3)[C@@H]2C1` [Compound 192], the IC50 is 0.001 to 5 µM.

The assay is the same for the next values; noted with them: HEK293 cells expressing human TRPA1; IC50 class after addition of reference TRPA1 agonist (FFA, AITC or 4-HNE); read-out: human TRPA1-HEK Activity.
On to `O=C(c1cc(-c2ccncc2)n(-c2ccc(C(F)(F)F)cc2)n1)N1CC(=O)N2CCc3ccccc3C2C1` (stereo not shown) [Compound 60], for which the IC50 lay in the range of 5 to 25 µM. Take `Cc1nc(C(F)(F)F)ccc1-c1cc(C(=O)N2CCC3(CC2)C(=O)NCN3c2ccc(F)cc2)nn1-c1ccc(C(F)(F)F)c(F)c1` [Compound 263]: the IC50 was greater than 25 µM. For the compound `N#Cc1c(F)ccc2[nH]c(=O)n(C3CCN(C(=O)c4cc(-c5cccnc5)n(-c5ccc(C(F)(F)F)c(F)c5)n4)CC3)c12` [Compound 244], the IC50 lay in the range of 5 to 25 µM. `O=C(c1cc(-c2ccncc2)n(-c2ccc(C(F)(F)F)cc2)n1)N1CCC(c2nc3ccccc3o2)CC1` [Compound 65]: the IC50 was greater than 25 µM. The same measure, in the same setting: as for `O=C(c1cc(-c2cccnc2)n(-c2ccc(F)c(C(F)(F)F)c2)n1)N1CCC(N2Cc3ccc(F)cc3NC2=O)CC1` [Compound 290], the figure is 0.001 to 5 µM. Still for that read-out and setting: under `N#Cc1ccc(-n2nc(C(=O)N3CCC(n4c(=O)[nH]c5ccc(F)c(F)c54)CC3)cc2-c2cccnc2)cc1C(F)(F)F` [Compound 284] stands 0.001 to 5 µM; under `N#Cc1ccc(-n2nc(C(=O)N3CCC4(CC3)C(=O)NCN4c3ccc(F)cc3)cc2-c2cccnc2)c(C(F)(F)F)c1` [Compound 324], 0.001 to 5 µM; under `O=C(c1cc(-c2ccncc2)n(-c2cnccn2)n1)N1CCN2C(=O)OC[C@@H]2C1` [Compound 136], 5 to 25 µM. On the same count and under the same terms, under `N#Cc1ccc(-n2nc(C(=O)N3CCC4(CC3)C(=O)NCN4c3ccc(F)c(F)c3)cc2-c2cccnc2)cc1` [Compound 213] stands 0.001 to 5 µM; under `N#Cc1cc2[nH]c(=O)n(C3CCN(C(=O)c4cc(-c5cccnc5)n(-c5ccc(C(F)(F)F)c(F)c5)n4)CC3)c2cc1F` [Compound 234], 0.001 to 5 µM; under `O=C(c1nn(-c2cc(F)c(F)c(F)c2)c(-c2cccnc2)c1Br)N1CCC2(CC1)C(=O)NCN2c1ccc(F)cc1` [Compound 210], 0.001 to 5 µM. As for `O=C(c1cc(-c2cccnc2)n(-c2ccc(I)cc2)n1)N1CCC(n2c(=O)[nH]c3ccc(F)c(F)c32)CC1` [Compound 237], the IC50 was in the range of 0.001 to 5 µM. For the compound `Cc1c(F)ccc2[nH]c(=O)n(C3CCN(C(=O)c4cc(-c5cccnc5)n(-c5cc(F)c(F)c(F)c5)n4)CC3)c12` [Compound 202], the IC50 lay within 0.001 to 5 µM. On to `O=C(c1cc(-c2cccnc2)n(-c2ccc(F)c(C(F)(F)F)c2)n1)N1CCC(n2c(=O)[nH]c3ccc(F)c(F)c32)CC1` [Compound 241], for which the IC50 fell in the range of 0.001 to 5 µM. As to `Cn1c(=O)n(C2CCN(C(=O)c3cc(-c4ccncc4)n(-c4ccc(C(F)(F)F)c(F)c4)n3)CC2)c2ccccc21` [Compound 105], the IC50 was greater than 25 µM. On the same count and under the same terms, as for `O=C(c1cc(-c2ccncc2)n(-c2cnccn2)n1)N1CCC2(CC1)NCN(c1ccccc1)C2=O` [Compound 137], the figure is greater than 25 µM; as for `O=C(c1cc(-c2ccncc2)n(-c2ccc(C(F)(F)F)cc2)n1)N1CCC2(CC1)NCN(c1ccccc1)C2=O` [Compound 73], greater than 25 µM.

For the compound `O=C(c1cc(-c2cccnc2)n(-c2ccc(C(F)(F)F)c(F)c2)n1)N1CCC(n2c(=O)[nH]c3ncccc32)CC1` [Compound 260], the IC50 lay within 0.001 to 5 µM. Same read-out and setting: as for `O=C(c1cc(-c2cccnc2)n(-c2ccc(C(F)(F)F)cc2C(F)(F)F)n1)N1CCC(n2c(=O)[nH]c3ccc(F)c(F)c32)CC1` [Compound 236], the figure is 0.001 to 5 µM.

With `Cc1cc(OC(F)(F)F)ccc1-n1nc(C(=O)N2CCC3(CC2)C(=O)NCN3c2ccc(F)cc2)cc1-c1cccnc1` [Compound 226], the IC50 was in the range of 0.001 to 5 µM. Same read-out and setting: under `O=C(Nc1ccc2c(c1)COC2=O)c1cc(-c2ccncc2)n(-c2ccc(F)c(F)c2)n1` [Compound 92] stands greater than 25 µM; under `O=C(c1cc(-c2cccnc2)n(-c2ccc(C(F)(F)F)c(F)c2)n1)N1CCC2(CC1)C(=O)NCN2c1ccc(F)c(C(F)(F)F)c1` [Compound 187], 0.001 to 5 µM; under `O=C(c1nn(-c2cc(F)c(F)c(F)c2)c(-c2cccnc2)c1Br)N1CCC(n2c(=O)[nH]c3ccc(F)c(F)c32)CC1` [Compound 211], 0.001 to 5 µM. On to `Cc1cnc(-c2cc(C(=O)N3CCC4(CC3)C(=O)NCN4c3ccc(F)cc3)nn2-c2ccc(C(F)(F)F)cc2)c(C)n1` [Compound 52], for which the IC50 was greater than 25 µM. Still for that read-out and setting: as for `O=C(c1cc(-c2ccncc2)n(-c2ccc(F)c(F)c2)n1)N1CCC2(CC1)SCCS2` [Compound 85], the figure is greater than 25 µM; as for `O=C(c1cc(-c2ccncc2)n(-c2cc(F)c(F)c(F)c2)n1)N1CCC(n2c(=O)[nH]c3ccccc32)CC1` [Compound 141], 5 to 25 µM. Same read-out and setting: under `O=C(c1nn(-c2ccc(F)c(C(F)(F)F)c2)c2c1CCc1ncccc1-2)N1CCC(n2c(=O)[nH]c3ccc(F)c(F)c32)CC1` [Compound 314] stands 0.001 to 5 µM; under `Cc1ccc(-c2cc(C(=O)N3CCC4(CC3)C(=O)NCN4c3ccc(F)cc3)nn2-c2ccc(C(F)(F)F)c(F)c2)cn1` [Compound 262], 5 to 25 µM; under `O=C(c1cc(-c2ccncc2)n(-c2ccc(C(F)(F)F)cc2)n1)N1CCC2(CC1)C(=O)NCN2c1ccc(F)cc1` [Compound 55], 0.001 to 5 µM. On the same count and under the same terms, as for `O=C(c1cc(-c2ccncc2)n(-c2ccc3c(c2)OCO3)n1)N1CCC(n2c(=O)[nH]c3ccccc32)CC1` [Compound 156], the figure is greater than 25 µM.

With `O=C(c1nn(-c2ccc(F)c(C(F)(F)F)c2)c2c1CCc1ncccc1-2)N1CCC2(CC1)C(=O)NCN2c1ccc(F)cc1` [Compound 313], the IC50 was in the range of 0.001 to 5 µM.

In the case of `O=C(c1cc(-c2cccnc2)n(-c2cc(F)c(F)c(F)c2)n1)N1C2CCC1CC(n1c(=O)[nH]c3ccc(F)c(F)c31)C2` (stereo not shown) [Compound 250], the IC50 was greater than 25 µM. On the same count and under the same terms, as for `O=C(c1cc(-c2cccnc2)n(-c2ccc(F)c(C(F)(F)F)c2)n1)N1CCC2(CC1)C(=O)NCN2c1ccc(OC(F)F)cc1` [Compound 283], the figure is 5 to 25 µM; as for `O=C(c1cc(-c2cccnc2)n(-c2ccc(OC(F)(F)F)c(F)c2)n1)N1CCC2(CC1)C(=O)NCN2c1ccc(F)c(F)c1` [Compound 214], 0.001 to 5 µM; as for `O=C1OC2(CCN(C(=O)c3cc(-c4ccncc4)n(-c4ccc(C(F)(F)F)c(F)c4)n3)CC2)c2ccc(Cl)cc21` [Compound 103], greater than 25 µM. On the same count and under the same terms, as for `O=C(Nc1ccc2c(c1)OC(F)(F)O2)c1cc(-c2ccncc2)n(-c2ccc(F)c(F)c2)n1` [Compound 88], the figure is 5 to 25 µM.

The record behind these values is US9951046B2, “TRPA1 modulators” (Algomedix, Inc., priority 2014, dated 2018).
